Reference: patent US20170304336A1, “COMBINATION” (priority 2014, published 2017)

How the values were obtained:
Type in all cases: in vivo, male rats of Wistar line
[1] = test system: experimental rat hypercholesterolemia model; assay: Lipid spectrum of blood in experimental rat hypercholesterolemia model
Description: The animals used were male rats of Wistar line. […] The proposed model using rats as the experimental animals is a reproducible standard model for evaluation of hypocholesterolemic effect.
(§1) Evaluation of hypocholesterolemic efficacy and safety of pharmaceutical combination was performed in vivo in experimental rat hypercholesterolemia model.
(§2) For 90 days the studied animals received hypercholesterol diet for pathology induction. The diet included Cholesterol+Cholic acid+Overheated fats (deep fat).
For 90 days the animals received the said ration ad libitum (30 g feed per animal). Development of hypercholesterolemia in animals was evaluated based on changes in lipid spectrum parameters on Day 30 of the study.
(§3) Drugs were introduced intragastrically with an esophageal bougie daily on Day 31-90 of the study at the same time of day.
Biochemical parameters and activity of blood serum enzymes (total cholesterol (CHS), LDL-CHS, HDL-CHS, triglycerides.
1.0-1.84 ml blood samples for the study of biochemical parameters were taken from tail vein of rats. Blood samples were taken from the animals after 14-15-hour's fasting at same time of day (9.00-11.00). For biochemical parameters tests a Biochemical Analyzer A-25 (Biosystems, Spain) was used. […]

[2] = test system: experimental rat hypercholesterolemia model; assay: Biochemical blood analysis (drug toxicity parameters) in rat hypercholesterolemia model
Description: as §1, §2, §3
Biochemical parameters and activity of serum enzymes (aspartate- and alanine aminotransferase, creatine phosphokinase, urea, serum amylase, total bilirubin, direct bilirubin, indirect bilirubin, serum glucose, cations K^+, Na^+).
1.0-1.84 ml blood samples for the study of biochemical parameters were taken from tail vein of rats. Blood samples were taken from the animals after 14-15-hour's fasting at same time of day (9.00-11.00). For biochemical parameters tests a Biochemical Analyzer A-25 (Biosystems, Spain) was used.
Vol. 4. pp. 1794-1798; Pearlman F C and Lee R T Y. Clin Chem 1974, 20, 447-453; Zoppi F et al, Peracino A., Fenili D., Marcovina S. and Ramella C. Giorn It Chim Cl. […] C. et al Clin Chem. 1974. Vol. 20. pp. 470-475; and in Meiattini F., et al, Clin Chem. 1978. Vol. 24. pp. 2161-2165 (total cholesterol); Warnick G R et al. Clin Chem 2001, 47, 1579-96 (HDL/LDL); Bucolo G and David H. Clin Chem. 1973.-Vol. 19. pp. 476-482; and in Fossati P. and, Prencipe L., Clin Chem. 1982. Vol. 28. pp. 2077-2080 (triglycerides); Trinder P. Ann Clin Biochem. 1969. Vol. 6. pp. 24-27).

[3] = Mass coefficients of organs (pancreas, liver, kidneys) of rats; details: M ± m; for weight coefficient, Kidneys / weight coefficient, Liver: in %
Description: To calculate mass coefficients the pancreas, liver and kidneys of the animals were extracted. The organs were weighed and the mass coefficients were calculated by the following formula:
Mass coefficient=(organ weight/animal body weight)×100%

[4] = Day 30 of treatment (Day 60 of study), dose 80 mg
[5] = Day 60 of treatment (Day 90 of study), dose 80 mg
[6] = blood, Day 60 of the treatment (Day 90 of the study), FV + GA 80 + 90 mg, FV 80 mg, GA 90 mg
[7] = FV + GA 80 + 90 mg, FV 80 mg, GA 90 mg
[8] = Day 30 of treatment (Day 60 of study), dose 40 mg
[9] = Day 60 of treatment (Day 90 of study), dose 40 mg
[10] = blood, Day 60 of the treatment (Day 90 of the study), PV + GtA 40 + 108 mg, PV 20 mg, GtA 108 mg
[11] = PV + GtA 40 + 108 mg, PV 40 mg, GtA 108 mg
[12] = group 3 of the rosuvastatin table, 20 mg
[13] = Day 30 of treatment (Day 60 of study), dose 20 mg
[14] = Day 30 of treatment, 20 mg as monotherapy
[15] = Day 60 of treatment (Day 90 of study), dose 20 mg

CC(C)n1c(/C=C/[C@@H](O)C[C@@H](O)CC(=O)O)c(-c2ccc(F)cc2)c2ccccc21 (stereo in doubt) [FV, (3R,5S,6E)-7-[3-(4-fluorophenyl)-1-(propan-2-yl)-1H-indol-2-yl]-3,5-dihydroxyhept-6-enoic acid]
HDL CHS [1, 4]: 0.61 ± 0.04 mmol/L | LDL CHS [1, 4]: 3.31 ± 0.44 mmol/L | TG [1, 4]: 1.39 ± 0.14 mmol/L | Total CHS [1, 4]: 5.0 ± 0.3 mmol/L | HDL CHS [1, 5]: 0.72 ± 0.03 mmol/L | LDL CHS [1, 5]: 3.52 ± 0.44 mmol/L | TG [1, 5]: 1.45 ± 0.14 mmol/L | Total CHS [1, 5]: 4.9 ± 0.4 mmol/L | ALT [2, 4]: 170 U/l | AST [2, 4]: 191 U/l | Amylase [2, 4]: 637 U/l | Bilirubin direct [2, 4]: 2.6 mg/dL | Bilirubin indirect [2, 4]: 2.2 mg/dL | Bilirubin total [2, 4]: 4.0 mg/dL | CPK [2, 4]: 690 U/l | Glucose [2, 4]: 150 mg/dL | Potassium [2, 4]: 3 mM | Sodium [2, 4]: 125 mmol | Urea [2, 4]: 7.3 mmol/L | ALT [2, 6]: 148 U/l | AST [2, 6]: 200 U/l | Amylase [2, 6]: 590 U/l | Bilirubin direct [2, 6]: 1.4 mg/dL | Bilirubin indirect [2, 6]: 1.6 mg/dL | Bilirubin total [2, 6]: 4.2 mg/dL | CPK [2, 6]: 680 U/l | Glucose [2, 6]: 127 mg/dL | Potassium [2, 6]: 2.3 mM | Sodium [2, 6]: 124 mmol | Urea [2, 6]: 6.3 mmol/L | weight coefficient, Pancreas [3, 7]: 0.37 ± 0.03^1 | weight coefficient, Kidneys [3, 7]: 0.75 ± 0.03 | weight coefficient, Liver [3, 7]: 4.41 ± 0.12

CC[C@H](C)C(=O)OC1C[C@H](O)C=C2C=C[C@H](C)C(CC[C@@H](O)C[C@@H](O)CC(=O)O)[C@H]21 (stereo in doubt) [PV, (3R,5R)-3,5-dihydroxy-7-((1R,2S,6S,8R,8aR)-6-hydroxy-2-methyl-8-{[(2S)-2-methylbutanoyl]oxy}-1,2,6,7,8,8a-hexahydronaphthalen-1-yl)-heptanoic acid]
HDL CHS [1, 8]: 0.65 ± 0.04 mmol/L | LDL CHS [1, 8]: 4.12 ± 0.35 mmol/L | TG [1, 8]: 1.33 ± 0.12 mmol/L | Total CHS [1, 8]: 4.4 ± 0.3 mmol/L | HDL CHS [1, 9]: 0.75 ± 0.04 mmol/L | LDL CHS [1, 9]: 3.70 ± 0.35 mmol/L | TG [1, 9]: 1.33 ± 0.11 mmol/L | Total CHS [1, 9]: 4.0 ± 0.3 mmol/L | ALT [2, 8]: 177 U/l | AST [2, 8]: 173 U/l | Amylase [2, 8]: 641 U/l | Bilirubin direct [2, 8]: 2.8 mg/dL | Bilirubin indirect [2, 8]: 2.2 mg/dL | Bilirubin total [2, 8]: 4.7 mg/dL | CPK [2, 8]: 604 U/l | Glucose [2, 8]: 150 mg/dL | Potassium [2, 8]: 3.4 mM | Sodium [2, 8]: 127 mmol | Urea [2, 8]: 7.0 mmol/L | ALT [2, 10]: 135 U/l | AST [2, 10]: 188 U/l | Amylase [2, 10]: 586 U/l | Bilirubin direct [2, 10]: 2.7 mg/dL | Bilirubin indirect [2, 10]: 1.9 mg/dL | Bilirubin total [2, 10]: 4.9 mg/dL | CPK [2, 10]: 598 U/l | Glucose [2, 10]: 160 mg/dL | Potassium [2, 10]: 4.3 mM | Sodium [2, 10]: 129 mmol | Urea [2, 10]: 6.0 mmol/L | weight coefficient, Pancreas [3, 11]: 0.47 ± 0.03^1 | weight coefficient, Kidneys [3, 11]: 0.76 ± 0.01 | weight coefficient, Liver [3, 11]: 4.47 ± 0.17 | weight coefficient, Pancreas [3, 12]: 0.49 ± 0.03^1 | weight coefficient, Kidneys [3, 12]: 0.78 ± 0.02 | weight coefficient, Liver [3, 12]: 4.49 ± 0.15

CCC(C)(C)C(=O)O[C@H]1C[C@@H](C)C=C2C=C[C@H](C)[C@H](CC[C@@H]3C[C@@H](O)CC(=O)O3)[C@H]21 [SV, (1S,3R,7S,8S,8aR)-8-{2-[(2R,4R)-4-hydroxy-6-oxotetrahydro-2H-pyran-2-yl]ethyl}-3,7-dimethyl-1,2,3,7,8,8a-hexahydronaphthalen-1-yl 2,2-dimethylbutanoate]
HDL CHS [1, 13]: 0.82 ± 0.06 mmol/L | LDL CHS [1, 13]: 3.75 ± 0.25 mmol/L | TG [1, 13]: 1.41 ± 0.11 mmol/L | Total CHS [1, 13]: 5.2 ± 0.2 mmol/L | HDL CHS [1, 8]: 0.58 ± 0.02 mmol/L | LDL CHS [1, 8]: 3.54 ± 0.20 mmol/L | TG [1, 8]: 1.27 ± 0.04 mmol/L | Total CHS [1, 8]: 4.2 ± 0.2 mmol/L | LDL decrease as compared to the control group [1, 14]: 35% | TG decrease as compared to the control group [1, 14]: 18% | decrease of the concentration of CHS as compared to the control group [1, 14]: 26% | increase in concentration of HDL as compared to the control group [1, 14]: 86% | HDL CHS [1, 15]: 0.77 ± 0.05 mmol/L | LDL CHS [1, 15]: 3.50 ± 0.05 mmol/L | TG [1, 15]: 1.43 ± 0.11 mmol/L | Total CHS [1, 15]: 4.9 ± 0.3 mmol/L | HDL CHS [1, 9]: 0.91 ± 0.02 mmol/L | LDL CHS [1, 9]: 3.20 ± 0.1 mmol/L | TG [1, 9]: 1.09 ± 0.05 mmol/L | Total CHS [1, 9]: 3.8 ± 0.1 mmol/L
